# “And” between values parts separate entries of the source, which are not always exact repeats. Identical values can stand only once.
# Test system: 422866-222-R5-J1-PDC spheroid viability
# Assay: Anticancer human tumor 422866-222-R5-J1-PDC patient-derived pancreatic adenocarcinoma cell line growth inhibition [CLK]
# Details: spheroids with HUVEC and MSC; for viability, T/C: stronger effect = lower value
# How it was run: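 Multi-cell-type spheroids combined patient-derived tumor cells with HUVEC endothelial cells and human mesenchymal stem cells. Paired agents were dosed in half-log steps down from about clinical Cmax, or from 10 microM where Cmax was unknown.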
# [1] = curve of first compound, second compound 0.0316 µM
# [2] = curve of first compound, second compound 0.1 µM
# [3] = curve of first compound, second compound 0.316 µM
# [4] = curve of first compound, second compound 1 µM
# [5] = curve of first compound, second compound 3.16 µM
# [6] = curve of first compound, second compound 10 µM
# [7] = second compound 0.0316 µM, first compound 0.00316 µM
# [8] = second compound 0.0316 µM, first compound 0.01 µM
# [9] = second compound 0.0316 µM, first compound 0.0316 µM
# [10] = second compound 0.0316 µM, first compound 0.1 µM
# [11] = second compound 0.0316 µM, first compound 0.316 µM
# [12] = second compound 0.0316 µM, first compound 1 µM
# [13] = second compound 0.1 µM, first compound 0.00316 µM
# [14] = second compound 0.1 µM, first compound 0.01 µM
# [15] = second compound 0.1 µM, first compound 0.0316 µM
# [16] = second compound 0.1 µM, first compound 0.1 µM
# [17] = second compound 0.1 µM, first compound 0.316 µM
# [18] = second compound 0.1 µM, first compound 1 µM
# [19] = second compound 0.316 µM, first compound 0.00316 µM
# [20] = second compound 0.316 µM, first compound 0.01 µM
# [21] = second compound 0.316 µM, first compound 0.0316 µM
# [22] = second compound 0.316 µM, first compound 0.1 µM
# [23] = second compound 0.316 µM, first compound 0.316 µM
# [24] = second compound 0.316 µM, first compound 1 µM
# [25] = second compound 1 µM, first compound 0.00316 µM
# [26] = second compound 1 µM, first compound 0.01 µM
# [27] = second compound 1 µM, first compound 0.0316 µM
# [28] = second compound 1 µM, first compound 0.1 µM
# [29] = second compound 1 µM, first compound 0.316 µM
# [30] = second compound 1 µM, first compound 1 µM
# [31] = second compound 3.16 µM, first compound 0.00316 µM
# [32] = second compound 3.16 µM, first compound 0.01 µM
# [33] = second compound 3.16 µM, first compound 0.0316 µM
# [34] = second compound 3.16 µM, first compound 0.1 µM
# [35] = second compound 3.16 µM, first compound 0.316 µM
# [36] = second compound 3.16 µM, first compound 1 µM
# [37] = second compound 10 µM, first compound 0.00316 µM
# [38] = second compound 10 µM, first compound 0.01 µM
# [39] = second compound 10 µM, first compound 0.0316 µM
# [40] = second compound 10 µM, first compound 0.1 µM
# [41] = second compound 10 µM, first compound 0.316 µM
# [42] = second compound 10 µM, first compound 1 µM
# 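Further: spheroids exposed to agents for seven days before readout.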
structure (smiles),measurement,setting,value
COc1c(OCCCN2CCOCC2)ccc2c3n(c(=NC(=O)c4cnc(N)nc4)nc12)CCN3 + CN1CCN(c2cc(C(=O)Nc3cc4cc(-c5cnn(C)c5)ccc4cn3)ccn2)CC1,IC50,[1],0.022 µM
same,IC50,[2],0.0263 µM
same,IC50,[3],0.0226 µM
same,IC50,[4],< 0.00316 µM
same,IC50,[5],< 0.00316 µM
same,IC50,[6],< 0.00316 µM
same,"viability, T/C",[7],99.3%
same,"viability, T/C",[8],65.7%
same,"viability, T/C",[9],43.5%
same,"viability, T/C",[10],33.2%
same,"viability, T/C",[11],28.9%
same,"viability, T/C",[12],33.4%
same,"viability, T/C",[13],92.2%
same,"viability, T/C",[14],73.2%
same,"viability, T/C",[15],46.9%
same,"viability, T/C",[16],31.6%
same,"viability, T/C",[17],32.2%
same,"viability, T/C",[18],34.5%
same,"viability, T/C",[19],92.8%
same,"viability, T/C",[20],63%
same,"viability, T/C",[21],46.1%
same,"viability, T/C",[22],35.5%
same,"viability, T/C",[23],30.3%
same,"viability, T/C",[24],37.6%
same,"viability, T/C",[25],33.7%
same,"viability, T/C",[26],33.4%
same,"viability, T/C",[27],21.6%
same,"viability, T/C",[28],25.6%
same,"viability, T/C",[29],18%
same,"viability, T/C",[30],23.8%
same,"viability, T/C",[31],9.85%
same,"viability, T/C",[32],13.6%
same,"viability, T/C",[33],11.9%
same,"viability, T/C",[34],10.2%
same,"viability, T/C",[35],10.4%
same,"viability, T/C",[36],9.8%
same,"viability, T/C",[37],3.74%
same,"viability, T/C",[38],4.24%
same,"viability, T/C",[39],3.81%
same,"viability, T/C",[40],1.77%
same,"viability, T/C",[41],5.18%
same,"viability, T/C",[42],3.72%
CCc1c2c(nc3ccc(O)cc13)-c1cc3c(c(=O)n1C2)COC(=O)[C@]3(O)CC + CN1CCN(c2cc(C(=O)Nc3cc4cc(-c5cnn(C)c5)ccc4cn3)ccn2)CC1,IC50,[1],< 0.00316 µM
same,IC50,[2],0.00448 µM
same,IC50,[3],< 0.00316 µM
same,IC50,[4],< 0.00316 µM
same,IC50,[5],< 0.00316 µM
same,IC50,[6],< 0.00316 µM
same,"viability, T/C",[7],49.4%
same,"viability, T/C",[8],41.2%
same,"viability, T/C",[9],37.6%
same,"viability, T/C",[10],37.1%
same,"viability, T/C",[11],27.9%
same,"viability, T/C",[12],20.3%
same,"viability, T/C",[13],54%
same,"viability, T/C",[14],42.3%
same,"viability, T/C",[15],34.8%
same,"viability, T/C",[16],40%
same,"viability, T/C",[17],24.7%
same,"viability, T/C",[18],24.3%
same,"viability, T/C",[19],52.9%
same,"viability, T/C",[20],44.1%
same,"viability, T/C",[21],45.7%
same,"viability, T/C",[22],31.9%
same,"viability, T/C",[23],24.2%
same,"viability, T/C",[24],25.2%
same,"viability, T/C",[25],12.3%
same,"viability, T/C",[26],12.7%
same,"viability, T/C",[27],12.4%
same,"viability, T/C",[28],14.1%
same,"viability, T/C",[29],30.5%
same,"viability, T/C",[30],24.3%
same,"viability, T/C",[31],6.01%
same,"viability, T/C",[32],8.18%
same,"viability, T/C",[33],12.9%
same,"viability, T/C",[34],19%
same,"viability, T/C",[35],25.1%
same,"viability, T/C",[36],31.6%
same,"viability, T/C",[37],1.14%
same,"viability, T/C",[38],0.8%
same,"viability, T/C",[39],2.73%
same,"viability, T/C",[40],2.68%
same,"viability, T/C",[41],4.83%
same,"viability, T/C",[42],5.54%
C#Cc1c(F)ccc2cc(O)cc(-c3ncc4c(N5CC6CCC(C5)N6)nc(OCC56CCCN5CC(F)C6)nc4c3F)c12 (stereo not drawn),"viability, T/C",compound 0.0316 µM,76.7% and 87.4%
same,"viability, T/C",compound 0.1 µM,73.1% and 85.8%
same,"viability, T/C",compound 0.316 µM,55.9% and 64.3%
same,"viability, T/C",compound 1 µM,51.7% and 67%
same,"viability, T/C",compound 3.16 µM,36.1% and 38.3%
same,"viability, T/C",compound 10 µM,26.8% and 29.4%
same,IC50,curve of compound,0.881 µM and 1.9 µM
CC1COCCN1c1cc(C2(S(C)(=N)=O)CC2)nc(-c2ccnc3[nH]ccc23)n1 (stereo not drawn) + CNC(=O)c1ccc(Nc2nc(OC3CCCC3)c3c(-c4ccc5nc(C)oc5c4)c[nH]c3n2)c(OC)c1,IC50,[1],7.15 µM
same,IC50,[2],> 10 µM
same,IC50,[3],2.56 µM
same,IC50,[4],1.56 µM
same,IC50,[5],0.973 µM
same,IC50,[6],0.63 µM
same,"viability, T/C",[9],108%
same,"viability, T/C",[10],137%
same,"viability, T/C",[11],104%
same,"viability, T/C",[12],102%
same,"viability, T/C","second compound 0.0316 µM, first compound 3.16 µM",59.6%
same,"viability, T/C","second compound 0.0316 µM, first compound 10 µM",46.2%
same,"viability, T/C",[15],106%
same,"viability, T/C",[16],98.4%
same,"viability, T/C",[17],88%
same,"viability, T/C",[18],84.6%
same,"viability, T/C","second compound 0.1 µM, first compound 3.16 µM",56.9%
same,"viability, T/C","second compound 0.1 µM, first compound 10 µM",60.6%
same,"viability, T/C",[21],79.8%
same,"viability, T/C",[22],71.6%
same,"viability, T/C",[23],69.3%
same,"viability, T/C",[24],58%
same,"viability, T/C","second compound 0.316 µM, first compound 3.16 µM",43.5%
same,"viability, T/C","second compound 0.316 µM, first compound 10 µM",50.5%
same,"viability, T/C",[27],61.4%
same,"viability, T/C",[28],66.7%
same,"viability, T/C",[29],59.3%
same,"viability, T/C",[30],52.1%
same,"viability, T/C","second compound 1 µM, first compound 3.16 µM",43.6%
same,"viability, T/C","second compound 1 µM, first compound 10 µM",52.5%
same,"viability, T/C",[33],65.3%
same,"viability, T/C",[34],65.1%
same,"viability, T/C",[35],58.3%
same,"viability, T/C",[36],50%
same,"viability, T/C","second compound 3.16 µM, first compound 3.16 µM",44.8%
same,"viability, T/C","second compound 3.16 µM, first compound 10 µM",53.8%
same,"viability, T/C",[39],64.5%
same,"viability, T/C",[40],69.2%
same,"viability, T/C",[41],58.8%
same,"viability, T/C",[42],42.2%
same,"viability, T/C","second compound 10 µM, first compound 3.16 µM",39.8%
same,"viability, T/C","second compound 10 µM, first compound 10 µM",50.4%
